Reference: patent US9434711B2 (Janssen Pharmaceutica, NV, priority 2007, dated 2016)
pIC50: −log10 of the molar value. Where two headings read alike, the source gives them in different places.

Target: canine TRPM8 (Canis lupus familiaris, UniProt Q1A7N1)
Assay: In Vitro Canine TRPM8 Functional Assay (Ca2+ fluorescence, icilin activation)
Assay type: cell-based
Conditions: for pIC50: read-out: IC50; for inhibition at 0.2 µM: read-out: % Inh @ 0.2; for inhibition at 0.5 µM: compound at 0.5 μM, read-out: % Inh @ 0.5
In short: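 Eight-point dose-response curves, each point averaging quadruplicate wells, gave EC50 or IC50. Canine TRPM8-expressing HEK293 cells, dye-loaded (Calcium 3), were pre-exposed 5 min to compound, then challenged with icilin at roughly EC80; intracellular Ca2+ read by FLIPR or FDSS fluorescence.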

[1] = HEK293 cells stably expressing canine TRPM8, icilin activation, eight-point dose-response
[2] = compound at 0.2 μM, canine TRPM8, icilin activation
[3] = 0.2 μM compound, HEK293 cells stably expressing canine TRPM8, icilin activation
[4] = HEK293 cells stably expressing canine TRPM8, icilin activation, average of two or more determinations
[5] = canine TRPM8, icilin activation

Sequence of canine TRPM8 (Q1A7N1 1-1104): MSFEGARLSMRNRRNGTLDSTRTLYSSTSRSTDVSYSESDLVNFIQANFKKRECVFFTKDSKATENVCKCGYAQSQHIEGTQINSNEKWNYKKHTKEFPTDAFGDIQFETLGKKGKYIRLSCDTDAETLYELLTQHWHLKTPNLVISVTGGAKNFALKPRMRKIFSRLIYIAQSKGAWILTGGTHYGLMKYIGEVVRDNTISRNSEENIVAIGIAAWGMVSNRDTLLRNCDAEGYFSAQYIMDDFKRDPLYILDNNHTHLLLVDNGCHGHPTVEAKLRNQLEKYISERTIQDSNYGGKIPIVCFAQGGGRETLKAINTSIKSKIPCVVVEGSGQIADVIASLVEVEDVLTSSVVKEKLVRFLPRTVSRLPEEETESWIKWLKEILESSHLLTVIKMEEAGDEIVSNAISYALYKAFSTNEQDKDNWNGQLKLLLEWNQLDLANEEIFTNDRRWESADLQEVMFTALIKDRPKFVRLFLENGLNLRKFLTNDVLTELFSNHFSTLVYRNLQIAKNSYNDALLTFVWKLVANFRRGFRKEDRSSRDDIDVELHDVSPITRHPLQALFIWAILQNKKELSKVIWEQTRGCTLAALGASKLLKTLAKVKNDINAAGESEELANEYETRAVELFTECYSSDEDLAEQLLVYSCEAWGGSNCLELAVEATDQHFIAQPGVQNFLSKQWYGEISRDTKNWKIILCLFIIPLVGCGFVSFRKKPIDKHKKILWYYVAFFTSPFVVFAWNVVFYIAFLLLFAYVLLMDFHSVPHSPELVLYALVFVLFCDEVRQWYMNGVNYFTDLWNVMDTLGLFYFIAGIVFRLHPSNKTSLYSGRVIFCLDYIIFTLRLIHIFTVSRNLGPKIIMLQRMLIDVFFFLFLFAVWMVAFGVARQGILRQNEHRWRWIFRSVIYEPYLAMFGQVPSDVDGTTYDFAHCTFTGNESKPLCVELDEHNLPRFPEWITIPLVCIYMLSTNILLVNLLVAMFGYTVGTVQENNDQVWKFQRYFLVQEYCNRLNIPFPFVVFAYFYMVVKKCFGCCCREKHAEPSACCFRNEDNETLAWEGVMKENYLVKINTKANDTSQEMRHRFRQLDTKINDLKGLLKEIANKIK

Row | pIC50 [1] | inhibition at 0.2 µM [2] [%] | Molecule | also measured
1 | 7.26 | 93 | CNS(=O)(=O)N(Cc1ccc(F)c(C(F)(F)F)c1)c1sc2ccccc2c1Cl [Compound 309, N-(3-Chloro-benzo[b]thiophen-2-yl)-N-(4-fluoro-3-trifluoromethyl-benzyl)-N′-methyl-sulfamide] | –
2 | – | 57 | Cc1c(N(CCC2CC2)S(=O)(=O)c2ccc(N3CCSCC3)cc2)sc2ccccc12 [Compound 740, N-(3-Methyl-benzo[b]thiophen-2-yl)-N-(cyclopropyl-ethyl)-4-thiomorpholin-4-yl-benzenesulfonamide] | –
3 | 7.26 | – | Cc1c(N(Cc2cccnc2)S(=O)(=O)c2ccc(C(=O)O)cc2)sc2ccccc12 [Compound 495, N-(3-Methyl-benzo[b]thiophen-2-yl)-N-(pyridin-3-ylmethyl)-4-carboxy-benzenesulfonamide] | % Inh @ 0.2 (μM) [2]: 98%
4 | – | – | N-(3-Methyl-benzo[b]thiophen-2-yl)-N-(5,5,5-trifluoro-pentyl)-4-(5-oxo-4,5-dihydro-[1,2,4]oxadiazol-3-yl)-pyrid-3-ylsulfonamide [Compound 809] | % Inh @ 0.2 (μM) [3]: 103%; pIC50 [4]: 8.16
5 | – | 27.9 | Cc1c(N(CCC2CC2)S(=O)(=O)C(F)(F)F)sc2ccccc12 [Compound 665, N-(2-Cyclopropyl-ethyl)-C,C,C-trifluoro-N-(3-methyl-benzo[b]thiophen-2-yl)-methanesulfonamide] | –
6 | 7.59 | 85 | Cc1c(N(Cc2ccc(F)c(C(F)(F)F)c2)S(=O)(=O)c2cccc(C(=O)O)c2)sc2cc(F)ccc12 [Compound 376, N-(6-Fluoro-3-methyl-benzo[b]thiophen-2-yl)-N-(4-fluoro-3-trifluoromethyl-benzyl)-3-carboxy-benzenesulfonamide] | –
7 | 7.66 | 101 | Cc1c(N(Cc2cccc(OC(F)(F)F)c2)S(=O)(=O)CCCO)sc2ccccc12 [Compound 764, N-(3-Methyl-benzo[b]thiophen-2-yl)-N-(3-trifluoromethoxy-benzyl)-3-hydroxy-propanesulfonamide] | –
8 | 7.80 | 94 | CN(C)S(=O)(=O)N(CCC(F)(F)F)c1sc2ccccc2c1Br [Compound 269, N-(3-Bromo-benzo[b]thiophen-2-yl)-N-(3,3,3-trifluoropropyl)-N′,N′-dimethylsulfamide] | –
9 | 8.70 | 102 | O=C(O)c1ccc(S(=O)(=O)N(Cc2ccc(F)c(C(F)(F)F)c2)c2sc3ccccc3c2C2CCC2)cc1 [Compound 698, N-(3-Cyclobutyl-benzo[b]thiophen-2-yl)-N-(4-fluoro-3-trifluoromethyl-benzyl)-4-carboxy-benzenesulfonamide] | –
10 | 8.35 | – | COc1cccc(CN(c2sc3ccccc3c2Br)S(=O)(=O)c2ccccc2)c1 [Compound 162, N-(3-Bromo-benzo[b]thiophen-2-yl)-N-(3-methoxy-benzyl)-benzenesulfonamide] | inhibition at 0.5 µM [5]: 101%
11 | – | 17.1 | O=S(=O)(N(Cc1ccc(F)c(C(F)(F)F)c1)c1cc2ccccc2s1)C(F)(F)F [Compound 663, N-Benzo[b]thiophen-2-yl-N-(4-fluoro-3-trifluoromethyl-benzyl)-C,C,C-trifluoro-methanesulfonamide] | –
12 | – | – | O=C(O)c1ccc(S(=O)(=O)N(CCC(F)(F)F)c2sc3ncccc3c2Cl)cc1 [Compound 815, N-(3-Chloro-thieno[2,3-b]pyridin-2-yl)-N-(3,3,3-trifluoro-propyl)-4-carboxy-benzenesulfonamide] | inhibition at 0.2 µM [3]: 44%
13 | 7.82 | 101 | O=C(O)c1cccc(S(=O)(=O)N(Cc2ccc(F)c(C(F)(F)F)c2)c2sc3ccccc3c2Cl)c1 [Compound 307, N-(3-Chloro-benzo[b]thiophen-2-yl)-N-(4-fluoro-3-trifluoromethyl-benzyl)-3-carboxy-benzenesulfonamide] | –
14 | 7.71 | – | O=[N+]([O-])c1ccccc1CN(c1sc2ccccc2c1Br)S(=O)(=O)c1ccccc1 [Compound 171, N-(3-Bromo-benzo[b]thiophen-2-yl)-N-(2-nitro-benzyl)-benzenesulfonamide] | inhibition at 0.5 µM [5]: 100%
15 | 7.97 | 105 | CCCCN(c1sc2ccccc2c1C)S(=O)(=O)c1ccc(-c2noc(=O)[nH]2)cc1 [Compound 541, N-(3-Methyl-benzo[b]thiophen-2-yl)-N-(butyl)-4-(5-oxo-4,5-dihydro-[1,2,4]oxadiazol-3-yl)-benzenesulfonamide] | –
16 | 7.72 | – | Cc1c(N(Cc2ccc(F)c(C(F)(F)F)c2)S(=O)(=O)c2c(Cl)nc3sccn23)sc2ccccc12 [Compound 337] | % Inh @ 0.2 (μM) [2]: 101%
17 | 8.89 | 95 | Cc1c(N(Cc2ccc(OC(F)(F)F)cc2)S(=O)(=O)c2ccc(C(=O)O)c(F)c2)sc2ccccc12 [Compound 774, N-(3-Methyl-benzo[b]thiophen-2-yl)-N-(4-trifluoromethoxy-benzyl)-3-fluoro-4-carboxy-benzenesulfonamide] | –
18 | 7.76 | 101 | CC(C)(O)c1c(N(Cc2ccccc2)S(=O)(=O)c2ccc(Br)cc2)sc2ccccc12 [Compound 736, N-(Benzyl)-N-(3-(1-hydroxy-1-methyl-ethyl)-benzo[b]thiophen-2-yl)-4-bromo-benzenesulfonamide] | –
19 | 8.55 | – | Cc1c(N(Cc2ccc(F)c(F)c2)S(=O)(=O)c2cccs2)sc2ccccc12 [Compound 129, N-(3,4-Difluoro-benzyl)-N-(3-methyl-benzo[b]thiophen-2-yl)-thiene-2-ylsulfonamide] | inhibition at 0.5 µM [5]: 101%
20 | 7.51 | 98 | CC(=O)c1c(N(Cc2ccc(F)c(C(F)(F)F)c2)S(=O)(=O)c2ccc(C#N)cc2)sc2ccccc12 [Compound 387, N-(3-Acetyl-benzo[b]thiophen-2-yl)-4-cyano-N-(4-fluoro-3-trifluoromethyl-benzyl)-benzenesulfonamide] | –
21 | – | 54 | Cc1c(N(CCC2CC2)S(=O)(=O)c2ccc(N3CCCCC3)cc2)sc2ccccc12 [Compound 751, N-(3-Methyl-benzo[b]thiophen-2-yl)-N-(cyclopropyl-ethyl)-4-piperidin-1-yl-benzenesulfonamide] | –
22 | – | – | Cc1c(N(CCCCC(F)(F)F)S(=O)(=O)c2cnccc2-c2nnn[nH]2)sc2ccccc12 [Compound 806, N-(3-Methyl-benzo[b]thiophen-2-yl)-N-(5,5,5-trifluoro-pentyl)-4-(1H-tetrazol-5-yl)-pyridin-3-ylsulfonamide] | pIC50 [4]: 7.89
23 | 7.60 | 101 | Cc1c(N(CCCCC(F)(F)F)S(=O)(=O)c2cccc(C#N)c2)sc2ccccc12 [Compound 552, N-(3-Methyl-benzo[b]thiophen-2-yl)-N-(5,5,5-trifluoro-pentyl)-3-cyano-benzenesulfonamide] | –
24 | 6.91 | 77 | Cc1c(N(CCCC(F)(F)F)S(=O)(=O)c2ccc(Oc3cccnc3)cc2)sc2ccccc12 [Compound 373, N-(3-Methyl-benzo[b]thiophen-2-yl)-N-(4,4,4-trifluoro-butyl)-4-(pyridin-3-yloxy)-benzenesulfonamide] | –
25 | – | – | Cc1c(N(Cc2ccc(OC(F)(F)F)cc2)S(=O)(=O)c2ccc(-c3noc(=O)[nH]3)cc2)sc2ccccc12 [Compound 801, N-(3-Methyl-benzo[b]thiophen-2-yl)-N-(4-trifluoromethoxy-benzyl)-4-(5-oxo-4,5-dihydro-[1,2,4]oxadiazol-3-yl)-benzenesulfonamide] | inhibition at 0.2 µM [3]: 102%; pIC50 [4]: 8.55
26 | – | 101 | O=c1[nH]c(-c2ccc(S(=O)(=O)N(CCC(F)(F)F)c3sc4ccccc4c3Br)cc2)no1 [Compound 608, N-(3-Bromo-benzo[b]thiophen-2-yl)-N-(3,3,3-trifluoro-propyl)-4-(5-oxo-4,5-dihydro-[1,2,4]oxadiazol-3-yl)-benzenesulfonamide] | –
27 | 8.29 | 101 | Cc1c(N(Cc2ccc(F)c(C(F)(F)F)c2)S(=O)(=O)CCCCO)sc2ccccc12 [Compound 758, N-(4-Fluoro-3-trifluoromethyl-benzyl)-N-(3-methyl-benzo[b]thiophen-2-yl)-4-hydroxy-butanesulfonamide] | –
28 | 7.32 | – | CCCCN(c1sc2ccccc2c1Cl)S(=O)(=O)c1ccccc1 [Compound 83, N-(Butyl)-N-(3-chloro-benzo[b]thiophen-2-yl)-benzenesulfonamide] | inhibition at 0.5 µM [5]: 101%
29 | 7.89 | 101 | CC(=O)c1c(N(Cc2ccc(F)c(C(F)(F)F)c2)S(=O)(=O)c2ccc(Br)cc2)sc2ccccc12 [Compound 386, N-(3-Acetyl-benzo[b]thiophen-2-yl)-4-bromo-N-(4-fluoro-3-trifluoromethyl-benzyl)benzenesulfonamide] | –

Row | Molecule | pIC50 [1] | inhibition at 0.2 µM [2] [%] | also measured
30 | Cc1c(N(CCOC(C)(C)C)S(=O)(=O)c2ccc(C(=O)O)cc2)sc2ccccc12 [Compound 401, N-(3-Methyl-benzo[b]thiophen-2-yl)-N-(2-tert-butoxy-ethyl)-4-carboxy-benzenesulfonamide] | 8.30 | 91 | –
31 | COC(=O)c1ccc(S(=O)(=O)N(CCCOC(C)(C)C)c2sc3ccccc3c2C)cc1 [Compound 416, N-(3-Methyl-benzo[b]thiophen-2-yl)-N-(3-tert-butoxy-propyl)-4-carbomethoxy-benzenesulfonamide] | 7.92 | 95 | –
32 | Cc1c(N(CCCCC(F)(F)F)S(=O)(=O)c2nc3ccccc3[nH]2)sc2ccccc12 [Compound 720, N-(3-Methyl-benzo[b]thiophen-2-yl)-N-(5,5,5-trifluoro-pentyl)-1H-benzimidazole-2-sulfonamide] | – | 52 | –
